Experimental data as given in patent publication US10723695B2, “Microbiocidal phenylamidine derivatives” (SYNGENTA PARTICIPATIONS AG, priority 2015, dated 2020).

Experiments:
Assay type in all cases: in vivo
[1] = test system: Puccinia recondita f. sp. tritici; assay: Puccinia recondita f. sp. tritici / wheat / leaf disc curative (brown rust); settings: foliar, 24 h, wheat leaf segments cv. Kanzler, curative (applied 1 day after inoculation), compared to untreated control leaf disks, read-out: disease control
Procedure: Puccinia recondita f. sp. tritici/Wheat/Leaf Disc Curative (Brown Rust) Wheat leaf segments cv. Kanzler are placed on agar in multiwell plates (24-well format). The leaf segments are inoculated with a spore suspension of the fungus. Plates were stored in darkness at 19° C. and 75% rh. The formulated test compound diluted in water was applied 1 day after inoculation.

[2] = test system: Puccinia recondita f. sp. tritici; assay: Puccinia recondita f. sp. tritici / wheat / leaf disc preventative (brown rust); settings: foliar, wheat leaf segments cv. Kanzler, compared to untreated control leaf disks, read-out: disease control
Procedure: Puccinia recondita f. sp. tritici/Wheat/Leaf Disc Preventative (Brown Rust) Wheat leaf segments cv. Kanzler were placed on agar in multiwell plates (24-well format) and sprayed with the formulated test compound diluted in water. The leaf disks were inoculated with a spore suspension of the fungus 1 day after application. The inoculated leaf segments were incubated at 19° C. and 75% rh under a light regime of 12 h light/12 h darkness in a climate cabinet and the activity of a compound was assessed as percent disease control compared to untreated when an appropriate level of disease damage appears in untreated check leaf segments (7-9 days after application).

Phakopsora pachyrhizi = Phakopsora pachyrhizi / soybean / leaf disk preventative (soybean rust); settings: foliar, soybean leaf disks, compared to untreated control leaf disks, read-out: disease control
Procedure: Phakopsora pachyrhizi/Soybean/Leaf Disk Preventative (Soybean Rust) Four-week old soybean plants are sprayed in a spray chamber with the formulated test compound diluted in water. Leaf disks are cut from treated plants and placed on agar into 24-well plates one day after application. Leaf disks are inoculated by spraying them with a spore suspension on their lower leaf surface. After an incubation period in a climate cabinet of 24-36 hours in darkness at 20° C. and 75% rh, the leaf disks are then kept at 20° C. with 12 h light/day and 75% rh. The percentage leaf disk area covered by disease is assessed when an appropriate level of disease appears on untreated check plants (12-14 days after application).

[3] = test system: Blumeria graminis f. sp. tritici (Erysiphe graminis f. sp. tritici); assay: Blumeria graminis f. sp. tritici / wheat / leaf disc preventative (powdery mildew on wheat); settings: foliar, wheat leaf segments cv. Kanzler, compared to untreated control leaf disks, read-out: disease control
Description: Blumeria graminis f. sp. tritici (Erysiphe graminis f. sp. tritici)/Wheat/Leaf Disc Preventative (Powdery Mildew on Wheat) Wheat leaf segments cv. Kanzler were placed on agar in a multiwell plate (24-well format) and sprayed with the formulated test compound diluted in water. The leaf disks were inoculated by shaking powdery mildew infected plants above the test plates 1 day after application.

Measured: pest or weed control at 200 ppm

CCN(C)/C=N/c1cc(OC)c(C(O)(Cc2ccccc2)C(F)(F)F)cc1C (stereo not shown) [Compound E1.086]
≥ 80%: all assays above

CCN(C)/C=N/c1cc(OC)c(C(O)(Cc2ccc(C)cc2)C(F)(F)F)cc1C (stereo not shown) [Compound E1.087]
≥ 80%: all assays above

CCN(C)/C=N/c1cc(OC)c(C(O)(Cn2ncc3ccccc32)C(F)(F)F)cc1C (stereo not shown) [Compound E1.093]
≥ 80%: all assays above

CCN(C)/C=N/c1cc(OC)c(C(O)(Cn2nc(C)c(C)c2C)C(F)(F)F)cc1C (stereo not shown) [Compound E1.095]
≥ 80%: all assays above

CCN(C)/C=N/c1cc(OC)c(C(O)(Cc2ccnc(F)c2)C(F)(F)F)cc1C (stereo not shown) [Compound E1.101]
≥ 80%: all assays above

CCN(C)/C=N/c1cc(OC)c(C(O)(c2cc3ccccc3s2)C(F)(F)F)cc1C (stereo not shown) [Compound E1.103]
≥ 80%: all assays above

CCN(C)/C=N/c1cc(OC)c(C(O)(c2ccc(C)s2)C(F)(F)F)cc1C (stereo not shown) [Compound E1.104]
≥ 80%: all assays above

CCN(C)/C=N/c1cc(OC)c(C(O)(c2cccs2)C(F)(F)F)cc1C (stereo not shown) [Compound E1.105]
≥ 80%: all assays above

CCN(C)/C=N/c1cc(OC)c(C(O)(c2cccc(Cl)n2)C(F)(F)F)cc1C (stereo not shown) [Compound E1.106]
≥ 80%: all assays above

CCN(C)/C=N/c1cc(OC)c(C(O)(c2cccnc2OC)C(F)(F)F)cc1C (stereo not shown) [Compound E1.112]
≥ 80%: all assays above

CCCCC(O)(c1cc(Cl)c(/N=C/N(C)CC)cc1OC)C(F)(F)F (stereo not shown) [Compound E1.117]
≥ 80%: all assays above

CCN(C)/C=N/c1cc(OC)c(C(O)C(F)(F)Cl)cc1C (stereo not shown) [Compound E1.118]
≥ 80%: all assays above

CCN(C)/C=N/c1cc(OC)c(C(O)(C(C)C)C(F)(F)Cl)cc1C (stereo not shown) [Compound E1.119]
≥ 80%: all assays above

CCN(C)/C=N/c1cc(OC)c(C(O)(C2CC2)C(F)(F)Cl)cc1C (stereo not shown) [Compound E1.120]
≥ 80%: all assays above

C=CCC(O)(c1cc(C)c(/N=C/N(C)CC)cc1OC)C(F)(F)Cl (stereo not shown) [Compound E1.121]
≥ 80%: all assays above

CCN(C)/C=N/c1cc(OC)c(C(O)(c2ccccc2)C(F)(F)Cl)cc1C (stereo not shown) [Compound E1.122]
≥ 80%: all assays above
